In patent US10292390B2, “Inhibition and dispersion of bacterial biofilms with 2-aminobenzimidazole derivatives” (WISCONSIN ALUMNI RESEARCH FOUNDATION, priority 2011, dated 2019):

How the values were obtained:
[1] = tested on: preformed P. aeruginosa biofilms; assay: biofilm dispersion assay (preformed 24 h-old biofilms, crystal violet); format: cell-based, Pseudomonas aeruginosa; settings: for dispersion of preformed biofilm / DC50: 24 h-old biofilm, additional 24 h with compound; for effect on final OD600 measurement during dispersion: 48 h; for DC50: Pseudomonas aeruginosa, read-out: half maximal dispersion DC50
Experimental: Compounds capable of not only inhibiting biofilm growth, but also dispersing preformed biofilms, are of particular value for a range of clinical and other applications. The ability of compounds 7 and 21 to disperse 24 h-old P. aeruginosa biofilms was tested using the crystal violet staining assay (FIG. 1B). Biofilms were allowed to develop in the absence of compound for 24 h, after which non-biofilm material was removed by washing with buffer and fresh media with compound was added. Biofilm was quantified after an additional 24 h, and the amount of dispersed biofilm was determined via comparison of the amount of biofilm at 48 h in the presence of compound versus the amount of biofilm at 24 h in the absence of compound. 2-ABIs 7 and 21 were capable of strongly dispersing P. aeruginosa biofilms (˜80%), with half maximal dispersion DC50 values of 84 μM and 92 μM, respectively (FIG. 1B).
Compounds 7 and 21 were evaluated for their ability to disperse preformed P. aeruginosa biofilms. For biofilm dispersion assessment, the static CV biofilm assay described above was modified in order to introduce compound to preformed biofilm for an additional incubation period. Solvent evaporation delivery of compound was not possible in this format; thus, stock solutions of compounds 7 and 21 were prepared in 95:5 M9+:LB media. Stocks of 7 and 21 were prepared at 3.16 mM and 1 mM, respectively (21 was insoluble at 3.16 mM). These stocks were diluted in series to obtain final concentrations as follows: 10^x μM where x=3.5 (7 only), 3, 2.5, 2, 1.5 (21 only), 1, 0, −1, or −2. Biofilms were allowed to form in microtiter plates in the absence of compound for 24 h, after which non-biofilm material was removed by dumping and washing as normal with sterile PBS. After the second washing, 200 μL of fresh 95:5 M9+:LB media containing compound at various concentrations was added to the wells, and the plates were incubated at 37° C. for an additional 24 h. One set of wells was left empty in order to assess the amount of biofilm present after the first 24 h incubation, while another set of wells was given media without compound to assess the amount of biofilm at 48 h. […] After the second 24 h incubation, non-biofilm material was removed by dumping and washing 4× with PBS (the additional washing at 48 h was found necessary to completely remove detached Int biofilm that had settled over the SA biofilm; data not shown). Biofilm was fixed and quantified with CV as described above. The amount of dispersed biofilm was determined via comparison of the amount of biofilm at 48 h in the presence of compound versus the amount of biofilm in the “no compound” positive control at 24 h. A higher degree of error was often observed with this assay format due to the additional incubation and washing steps; thus, all compounds were tested in replicates of 6 wells.
DC50 values for biofilm dispersion by 7 and 21 were calculated using a sigmoidal curve fit (three parameters) and are reported with a 95% Cl.

[2] = tested on: RhlR activity, P. aeruginosa PAO1/prhII-LVAgfp; assay: Rhl QS reporter assay (GFP fluorescence); format: cell-based, Pseudomonas aeruginosa; settings: for RhlR activity: at 1-10× IC50 values for biofilm inhibition; for inhibition of Rhl-QS system: fluorescence dose curves, 12 and 24 h
Experimental: As introduced above, the role of QS in biofilm formation is well documented and therefore the abilities of 7 and 21 to inhibit QS in P. aeruginosa were evaluated. For this purpose, two wild-type P. aeruginosa QS reporter strains were prepared that contain the plasmids plasI-LVAgfp and prhII-LVAgfp. (see: The Examples) These strains report the activity of two intracellular QS receptors in P. aeruginosa (LasR and RhlR) by the production of green fluorescent protein (gfp), allowing for LasR and RhlR activities, and thus QS levels, to be quantified by fluorescence. […] Studies of related 2-ABI derivatives have shown that this class of molecules is bacterial cell permeable, allowing us to surmise that 7 and 21 could act on the Las and Rhl systems intracellularly. […] The precise targets of 7 and 21 that result in QS disruption are not yet known.
To evaluate the activity of compounds 7 and 21 on QS in P. aeruginosa, we prepared two P. aeruginosa QS reporter strains: PAO1/plasI-LVAgfp and PAO1/prhII-LVAgfp. These strains contain the reporter plasmids plasI-LVAgfp and prhII-LVAgfp, respectively, which contain the laslI or rhII promoter sequences fused to LVAgfp. Binding of activated LasR or RhlR to these promoters induces GFP production, which can be quantified by fluorescence and is proportional to the level of LasR or RhlR activation. LVAgfp is an unstable form of GFP with an estimated half-life of 40-60 min, which allows for a more real-time analysis of gene expression (wild-type GFP has a half-life of greater than 1 day). Further, this specific GFP is the variant GFPmut3b that has a shifted excitation maximum near 501 nm (wild-type GFP has an excitation maximum near 395 nm); emission maximum is similar to wild-type GFP at 511 nm (wild-type GFP has emission maximum near 508 nm). Utilizing this GFP variant is key to detection over native fluorescent pigments that are produced in P. aeruginosa and excite near 400 nm and emit near 500 nm. Preparation and analysis of the PAO1/plasI-LVAgfp and PAO1/prhII-LVAgfp reporters are outlined below.
Compounds 7 and 21 were evaluated for their ability to modulate the Las and Rhl systems using the P. aeruginosa PAO1/plasI-LVAgfp and PAO1/prhII-LVAgfp reporters. We used the same exact setup as the static biofilm assay in 96-well microtiter plates for P. aeruginosa with the exception that freezer stocks were streaked on LB/agar with 300 μg/mL Carb. Microtiter plates were prepared similar to dose-response analysis such that final well concentrations upon inoculum addition ranged from 10^x μM where x=3.5, 3, 2.5, 2, 1.5, 1, 0, −1, or −2. Measurements of FL500/540 and OD600 were made at 12 and 24 h, and after 24 h the samples were evaluated for biofilm formation using the CV procedure. […]

Row | SMILES | dispersion of preformed biofilm [1] [%] | effect on final OD600 measurement during dispersion [1] | DC50 [1] [µM] | RhlR activity [2] | inhibition of Rhl-QS system [2]
1 | Nc1nc2ccccc2[nH]1 [Compound 7, 2-aminobenzimidazole] | ~80 | without significantly affecting the final OD600 measurement | 84 | significant reduction | able to inhibit
2 | Cc1cc2nc(N)[nH]c2cc1C [Compound 21, 5,6-Dimethyl-2-aminobenzimidazole] | ~80 | without significantly affecting the final OD600 measurement | 92 | significant reduction | able to inhibit
